Read-outs that look alike come from different tables or passages of the source. Ends that are not written are not given here.
Columns and labels:
USP20 DUSP2 domain [1] = biological target: T1, USP20 DUSP2 domain (Homo sapiens, UniProt Q9Y2K6); assay: FP-monitored affinity measurements, USP20 DUSP2; assay type: binding
T1 construct: USP20_DUSP2; Q9Y2K6; DUSP2; 776; 894; 6xHis-GST (N, cleaved yes); made in house; host or cells: Escherichia coli BL21-Gold (DE3)
Protocol: (§1) Proteins were expressed in Escherichia coli (E.coli) BL21-Gold (DE3) bacteria. The cDNAs encoding N-terminal 6-histidine-glutathione S-transferase tagged (6xHis-GST), 6xHis-tagged or GST-tagged protein domains in pETM33, pETM11, pGEX6P1 expression vectors respectively, were obtained from Genescript or kindly provided by MRC-PPU (Suppl. Data 1) The bacteria were transformed with the plasmid and grew at 37 °C in 2YT (5 g/L NaCl, 16 g/L tryptone and 10 g/L yeast extract) supplemented with Kanamycin (30 μg/mL) until reaching an OD600 of 0.7. Protein expression was induced with 0.3 mM isopropyl β-D-1 thiogalactopyranoside (IPTG) for 18 h at 18 °C while shaking. For zinc-finger domains, 50 μM of ZnSO4 was added during expression. The bacterial cultures were pelleted for 15 minutes at 4000 x g at 4 °C and stored at −20 °C until purification. The pellets were resuspended in lysis buffer (1× phosphate-buffered saline (PBS), 0.5 % Triton-X, 5 mM MgCl2, 10 μg/mL lysozyme, cOmplete^TM EDTA-free protease inhibitor cocktail (Roche), 10 μg/mL DNAseI) and incubated for 1 h shaking at 4 °C. […] The supernatant was incubated with glutathione (GSH) Sepharose (Cytiva) or Ni2+ Sepharose (Cytiva) for 1 h at 4 °C while shaking. The beads with the bound protein were washed with 1x PBS and eluted with 10 mM reduced glutathione in 50 mM Tris pH 8.0. For fluorescence polarization experiments, the proteins were not eluted from the beads, and the 6xHis-GST tag was cleaved overnight on GSH Sepharose beads at 4 °C while shaking with PreScission Protease in cleavage buffer (50 mM Tris pH 7.5, 150 mM NaCl, 1 mM DTT). The sample containing the cleaved domain was separated from the tag and protease and buffer-exchanged to 50 mM sodium phosphate buffer pH 7.4 with 1 mM DTT using a PD-10 desalting column (Cytiva). The purity and size of the proteins were analyzed by SDS-PAGE electrophoresis.
(§2) The measurements were performed at room temperature in a non-binding black half area 96-well plate (Corning) with a total volume of 50 μL per well. Peptides were obtained from GeneCust (France) with >95% purity. FITC-labeled peptides (N-terminally FITC-labeled without spacer and C-terminally amidated) were dissolved in dimethyl sulfoxide (DMSO), and unlabeled peptides (N-terminally acetylated and C-terminally amidated) were dissolved in 50 mM phosphate buffer pH 7.4. Saturation measurements were performed using a serial dilution of the protein domains in phosphate buffer (25 μL) and the addition of 10 nM FITC-labeled peptide (in phosphate buffer supplemented with 2 mM DTT) (25 μL). […] All measurements were performed in three technical replicates. The data were analyzed using GraphPad Prism version 9.2.0 for MacOS (GraphPad Software, San Diego, California USA, www.graphpad.com). The saturation curves were fitted to the quadratic equation, and the displacement curves were fitted to a sigmoidal dose-response equation as described previously.

USP33 DUSP2 domain [2] = biological target: T2, USP33 DUSP2 domain (Homo sapiens, UniProt Q8TEY7); assay: FP-monitored affinity measurements, USP33 DUSP2; assay type: binding
T2 construct: USP33_DUSP2; Q8TEY7; DUSP2; 806; 921; 6xHis-GST (N, cleaved yes); made in house; host or cells: Escherichia coli BL21-Gold (DE3)
T2 sequence (Q8TEY7 with tags, fused parts or gaps): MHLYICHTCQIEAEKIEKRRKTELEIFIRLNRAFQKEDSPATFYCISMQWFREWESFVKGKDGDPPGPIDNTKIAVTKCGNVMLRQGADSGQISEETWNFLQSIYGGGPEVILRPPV
Protocol: as §1, §2

USP20 DUSP2 domain [3] = biological target: T1, USP20 DUSP2 domain; assay: Peptide SPOT array, USP20 DUSP2; assay type: binding; conditions: for Average: peptide SPOT array intensity minus background, mean of 2 replicas; for Average / Normalize to peptide with higher intensity %: sheet S5A; for Normalize to higher intensity (%) / Normalize to peptide with higher intensity %: peptide SPOT array; for Normalize to higher intensity (%): USP20 DUSP2, average normalised to the highest intensity (ARNTL2 = 100); for Normalize to peptide with higher intensity %: average normalized to the peptide with highest intensity (ARNTL2 = 100);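 on all read-outs here: GST-tagged domain probed overnight at 4 °C on peptides made on cellulose membranes, bound protein detected via HRP-coupled anti-GST antibody, spot intensity from image analysis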
Protocol: (§3) Peptides were synthesized on cellulose membranes with standard Fluoroenylmethylox-ycarbonyl (Fmoc) chemistry using a Multipep automated synthesizer at INTAVIS (Tübingen, Germany) or ordered from JPT (PepSpots). The membranes were activated with methanol for 5 min and washed three times for 5 min with TBST (50 mM Tris, 137 mM NaCl, 2.7 mM KCl, pH 8.0, 0.05% Tween-20). The membranes were incubated with blocking buffer (5% skim milk powder in TBST) for 2 h at room temperature while shaking. The membranes were incubated with the GST-tagged protein diluted at the desired concentration in blocking buffer and incubated overnight at 4 °C while shaking. The membrane was rinsed 3 times with TBST and incubated with HRP-conjugated anti-GST antibody (Cytiva, RPN1236; 1:3000 dilution) in blocking buffer for 1 h at 4 °C while shaking. […] The images were analyzed in Fiji (ImageJ2 version 2.9.0).

USP33 DUSP2 domain [4] = biological target: T2, USP33 DUSP2 domain; assay: Peptide SPOT array, USP33 DUSP2; assay type: binding; conditions: average normalised to the highest intensity (CCDC88B = 100)
Protocol: as §3

USP20 zf-UBP domain = biological target: T3, USP20 zf-UBP domain (Homo sapiens, UniProt Q9Y2K6); assay: FP-monitored affinity measurements, USP20 zf-UBP; assay type: binding; conditions: USP20_UBP; FP displacement by unlabelled peptide; read-out: KD
T3 construct: USP20_UBP; Q9Y2K6; zf-UBP; 99; 6xHis-GST (N, cleaved yes); made in house; host or cells: Escherichia coli BL21-Gold (DE3)
T3 sequence (Q9Y2K6 4-99): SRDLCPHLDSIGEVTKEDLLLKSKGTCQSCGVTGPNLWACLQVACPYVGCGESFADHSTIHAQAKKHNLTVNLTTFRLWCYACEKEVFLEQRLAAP
Protocol: The measurements were performed at room temperature in a non-binding black half area 96-well plate (Corning) with a total volume of 50 μL per well. […] All measurements were performed in three technical replicates. […] The saturation curves were fitted to the quadratic equation, and the displacement curves were fitted to a sigmoidal dose-response equation as described previously[68].

FLAG-USP33 = assay: IP-MS of FLAG-USP33 and variants vs empty vector; assay type: cell-based, human; conditions: IP-MS
Protocol: For transfection, 1x10^6 HEK293 cells were seeded in 10 cm dishes with DMEM, 10% FBS, 1% L-G (without antibiotic) medium, incubated at 37 °C, with 5 % CO2 for 24 h. Cells were transfected with a transfection mix containing […] of Opti-MEM (Thermo Fisher Scientific), 20 μL of PEI stock (1 mg/mL) and […] of the desired cDNA. For co-transfection, 2.5 μg of DNA of each plasmid was used. The mix was vortexed for 15 s and incubated at room temperature for 15–20 min. The transfection mix was added to the dish and gently mixed. Plates were incubated at 37 °C for 36–48 h before harvesting. For USP33 constructs, 5 μM Bortezomib (proteasome inhibitor) was added 4 hours before harvesting the cells.
FLAG fusion proteins were immunoprecipitated from HEK293 cells transfected with plasmids encoding the protein of interest using the anti-FLAG M2 affinity gel from Sigma-Aldrich. Cell pellets were lysed with 100–200 μL/per dish lysis buffer (Pierce RIPA buffer, 1X protease inhibitor (Roche), 50 unit/μL of Benzonase Nuclease) rotating at 4 °C for 30–45 min. […] The cell lysate was clarified by centrifugation at 17,000 x g, at 4 °C for 12 min, and the supernatant was transferred to a clean, pre-chilled low-binding Eppendorf tube. […] The IP samples were centrifuged at 6500 x g at 4 °C for 30 s. The supernatant containing the unbound proteins was transferred to a clean tube. The resin was washed three times with 500 μL of TBS, centrifuged at 6500 x g at 4 °C for 30 s. The bound FLAG fusion protein was eluted with 100 μL of 150 ng/μL 3X FLAG peptide (Sigma) in TBS and incubated in the cold room for 1 h or overnight. The tube was centrifuged at 6500 x g at 4 °C for 30 s; the eluted proteins were transferred to a clean tube. The eluted proteins were prepared for analysis by western blot or Mass Spectrometry.
Immunoprecipitation (IP) was carried out as described above; four technical replicates of each IP condition were performed, and the empty vector was used as a negative control. The eluted protein was processed following the Strap-micro protocol (Protifi). The IP elution containing 1–100 μg protein was 1:1 mixed with 2X lysis buffer (10% SDS, 100 mM TEAB pH 8.5). […] Samples were vortexed, mixed with 165 μL of 100 mM TEAB in 90% methanol, and passed through an S-Trap micro column at 4000 g for 30 s to trap the proteins. The column was washed with 150 μL of 100 mM TEAB in 90% methanol (at 4,000 x g for 30 seconds) three times. The S-Trap column was centrifuged again and transferred to a clean 2 mL tube for digestion with 20 μL of digestion buffer (1 μg trypsin per 10 μg sample in 50 mM TEAB), at 37 °C overnight in a thermomixer without shaking. The digested peptides were eluted with […] of 50 mM TEAB in water, […] of 0.2 % formic acid in water, and […] of 50 % acetonitrile in water, centrifuging at 4000 x g for 1 min each time. The three elutions were pooled in a low-binding tube, placed on dry ice until frozen, dried in a SpeedVac vacuum (Thermo Scientific), and proceeded with the LCMS analysis.
Eluted peptides were resuspended in water supplemented with 0.015% dodecyl maltoside and 0.1% formic acid and were injected on a Vanquish Neo UHPLC System operating in trap and elute mode coupled to an Orbitrap Astral Mass Spectrometer (Thermo Fisher Scientific). […] Eluted peptides were analyzed using data-independent acquisition mode on the mass spectrometer.
Peptides were searched against the Uniprot Swissprot Human database (released on 02/01/2023) supplemented with the USP20 and USP33 mutants using DiaNN (v1.9.0)[62] operating in library-free mode. Data filtering and statistical analysis were carried out in Python (v3.9.0) using the packages pandas, numpy, sklearn, scipy, rpy2, Plotnine, and Plotly and R (v4.4.3) using the package limma.
Protein groups identified with a single peptide or quantified in fewer than three replicates in at least 1 condition were filtered out. […]

[5] = competitive FP: unlabeled peptide (N-acetylated, C-amidated) against protein with 10 nM FITC-labeled peptide, 50 mM phosphate pH 7.4, room temperature, technical triplicate, read-out: KD, USP20 DUSP2
[6] = competitive FP: unlabeled peptide (N-acetylated, C-amidated) against protein with 10 nM FITC-labeled peptide, 50 mM phosphate pH 7.4, room temperature, technical triplicate, read-out: KD, USP33 DUSP2
[7] = USP20_DUSP2, FP displacement by unlabelled peptide, read-out: KD
[8] = USP33_DUSP2, FP displacement by unlabelled peptide, read-out: KD

T1 sequence (Q9Y2K6 with tags, fused parts or gaps): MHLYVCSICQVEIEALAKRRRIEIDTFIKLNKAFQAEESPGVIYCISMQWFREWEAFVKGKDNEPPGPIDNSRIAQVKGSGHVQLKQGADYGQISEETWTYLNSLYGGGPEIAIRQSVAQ

Row | Compound | Kd (USP20 DUSP2 domain [1]; [7]) [µM] | Kd (USP33 DUSP2 domain [2]; [8]) [µM] | Average (USP20 DUSP2 domain [3]) | Normalize to higher intensity (%) (USP20 DUSP2 domain [3]) | Normalize to peptide with higher intensity % (USP20 DUSP2 domain [3]) [%] | Normalize to higher intensity (%) (USP33 DUSP2 domain [4]) | also measured
1 | PYIPMDGEDFQLSPICPE [HIF2A531-548] | – | – | – | – | – | – | Kd (USP20 DUSP2 domain [1]; [5]): > 200 µM; Kd (USP33 DUSP2 domain [2]; [6]): > 1000 µM
2 | Ac-PYIPMDDKFQLRSFDQLS-NH2 [HIF1A_D571K] | 85 | ~145 | – | – | – | – | –
3 | Ac-PYIPMDKDFQLRSFDQLS-NH2 [HIF1A_D570K] | 18.8 | – | – | – | – | – | –
4 | PDVVDDFQLQHRHGPG [MFSD2B] | 44.7 | 0.75 | -6.828 | -3.824 | -3.824 | 51.523 | –
5 | Ac-PYIPMDGEDFQLSPICPE-NH2 [HIF2A] | ~235 | ~1180 | – | – | – | – | –
6 | YAQSKTQLEVRPV [ROBO1] | – | – | – | – | – | – | Kd (USP20 zf-UBP domain): ~81.6 µM
7 | NBAS | – | – | – | – | – | – | log2_FC (FLAG-USP33; FLAG-USP33-ΔDUSP2 vs EV, comparison bh_2 Sample_Limma_ImpMedInt_USP33_DUSP2_domain/EV): 2.843; log2_FC (FLAG-USP33; FLAG-USP33-ΔUBP vs EV, comparison bh_2 Sample_Limma_ImpMedInt_USP33_UBP_domain/EV): 2.886; log2_FC (FLAG-USP33; FLAG-USP33 UBP mutant vs EV, comparison USP33_E86K_D90R/EV, Limma): 2.804
8 | Ac-PYIPMDDDFQARSFDQLS-NH2 [HIF1A_L574A] | 89 | ~227 | – | – | – | – | –
9 | QLEEELFQLRQGPAGL [CCDC88B] | 22.4 | 40.1 | 62.4217 | 34.95 | 34.9541 | 100 | –
10 | IPMDDDFQLRSFDQLS [HIF1A] | 18.7 | 1.5 | 35.4167 | 19.83 | 19.8322 | 69.9644 | –
11 | Ac-SDDDLAWNIAPQGLQ-NH2 [GPR137B348-362] | 10.2 | ~228 | 1.607 | 0.8997 | 0.8997 | -9.797 | Kd (USP33 DUSP2 domain [2]; [6]): > 200 µM
12 | CC[C@H](C)[C@H](NC(=O)[C@H](Cc1ccc(O)cc1)NC(=O)[C@@H]1CCCN1)C(=O)N1CCC[C@H]1C(=O)N[C@@H](CCSC)C(=O)N[C@@H](CC(=O)O)C(=O)N[C@@H](CC(=O)O)C(=O)N[C@@H](CC(=O)O)C(=O)N[C@@H](C)C(=O)N[C@@H](CCC(N)=O)C(=O)N[C@@H](CC(C)C)C(=O)N[C@@H](CCCNC(=N)N)C(=O)N[C@@H](CO)C(=O)N[C@@H](Cc1ccccc1)C(=O)N[C@@H](CC(=O)O)C(=O)N[C@@H](CCC(N)=O)C(=O)N[C@@H](CC(C)C)C(=O)N[C@@H](CO)C(=O)O [F572A] | – | – | – | – | – | – | Kd (USP20 DUSP2 domain [1]; [5]): > 600 µM; Kd (USP33 DUSP2 domain [2]; [6]): > 900 µM
13 | CC[C@H](C)[C@H](NC(=O)[C@H](Cc1ccc(O)cc1)NC(=O)[C@@H]1CCCN1C(C)=O)C(=O)N1CCC[C@H]1C(=O)N[C@@H](CCSC)C(=O)N[C@@H](CC(=O)O)C(=O)N[C@@H](CC(=O)O)C(=O)N[C@@H](CC(=O)O)C(=O)N[C@@H](C)C(=O)N[C@@H](CCC(N)=O)C(=O)N[C@@H](CC(C)C)C(=O)N[C@@H](CCCNC(=N)N)C(=O)N[C@@H](CO)C(=O)N[C@@H](Cc1ccccc1)C(=O)N[C@@H](CC(=O)O)C(=O)N[C@@H](CCC(N)=O)C(=O)N[C@@H](CC(C)C)C(=O)N[C@@H](CO)C(N)=O [HIF1A_F572A] | ~589 | ~930 | – | – | – | – | –

Source: PMC13376213, “Systematic discovery of motif-based interactions of the auxiliary domains of USP family deubiquitinases” (Nature Communications, 2026)
